# Reference: patent US20060083748A1, “Calixarenes for use as excipient for an active substance” (priority 2002, published 2006)
# Where two headings read alike, the source gives them in different places.
# How the values were obtained:
# [1] = Membrane permeation, PAMPORE system (hydrophilic pores in the lipid layer); conditions: hydrophilic pores in the lipid layer (paracellular path); 125 or 250 μM, Tris-buffer pH 7.4, 16 hours
# Description: (§1) The combination of these two test systems allows the study of the permeability of a plurality of active ingredients independently of the type of transport which they prefer.
# [2] = Membrane permeation, traditional artificial membrane without hydrophilic pores (Standard); conditions: artificial membrane without hydrophilic pores (transcellular path); 125 or 250 μM, Tris-buffer pH 7.4, 16 hours
# Description: as §1
# [3] = system: Herpes simplex 1, herpes simplex 2, varicella zoster; conditions: cited from earlier work
# Epstein-Barr = conditions: cited from earlier work
# CMV = conditions: in achievable concentrations; cited from earlier work
# herpes simplex = conditions: cited from earlier work
# Varizella zoster = conditions: cited from earlier work
# [4] = AIDS, chemotherapy; i.v. administration; cited from earlier work
# [5] = cited from earlier work
compound,measurement,setting,value
Hexasulphonic acid calix[6]arenes,Membrane permeation (%) PAMPORE,[1],100%
same,Membrane permeation (%) Standard,[2],0%
Tetramethyltetramethyl resorcin[4]arenes,Membrane permeation (%) PAMPORE,[1],95%
same,Membrane permeation (%) Standard,[2],<15%
Nc1nc2c(ncn2COCCO)c(=O)[nH]1 [aciclovir],Activity (order of activity against viruses),[3],Herpes simplex 1>herpes simplex 2>varicella zoster
same,Activity against Epstein-Barr,Epstein-Barr,only in vitro
same,Activity against CMV,CMV,not active
same,Effect in recurring mucocutaneous herpes infections,herpes simplex; chron. suppressive therapy,reduces rate of attack
same,Effect in mucocutaneous herpes simplex infections,herpes simplex; mucocutaneous herpes simplex infections,overall moderate benefit
same,Effect on post-herpetic neuralgia,Varizella zoster; in vivo,no clear effect
same,Effect on healing in varizella zoster infections,"Varizella zoster; symptoms, lesions, pain",faster healing
same,Effect in immune suppressed patients,[4],"prevents dissemination, faster healing"
same,t/2,[5]; anuria (renal insufficiency),18 h
same,t/2,[5]; normal renal function,3 h
"5,11,17,23-tetrasulphonic acid calix[4]arenes",Membrane permeation (%) PAMPORE,[1],100%
same,Membrane permeation (%) Standard,[2],<15%
